Experimental data from patent publication US9169252B2 (BRISTOL-MYERS SQUIBB COMPANY, priority 2014, dated 2015).
Like-named read-outs stand apart in the source and are kept apart here. One block for each compound: values may come before it.

How the values were obtained:
[1] = tested on: TLR2 induced IL-6 in peripheral blood mononuclear cells (PBMCs); test: PBMC TLR2 Induced IL-6 Assay; assay type: cell-based, human; conditions: IL-6 by ELISA; for EC50: read-out: Cell EC50; for IC50: read-out: Cell IC50
Method in brief: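 Lipoteichoic acid at 10 µg/ml served as TLR2 stimulus for 5 hours, following a 30-minute compound pretreatment at 37° C. Cells were Ficoll-isolated human PBMCs, 250000 cells/well, cultured in RPMI plus 10% heat-inactivated FCS.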

[2] = molecular target: IRAK4 (Homo sapiens (Human), UniProt Q9NWZ3); test: IRAK4 Inhibition Assay; assay type: biochemical; conditions: ATP 500 μM, read-out: IRAK4 IC50
Chain of IRAK4 (Q9NWZ3 whole entry, species assumed): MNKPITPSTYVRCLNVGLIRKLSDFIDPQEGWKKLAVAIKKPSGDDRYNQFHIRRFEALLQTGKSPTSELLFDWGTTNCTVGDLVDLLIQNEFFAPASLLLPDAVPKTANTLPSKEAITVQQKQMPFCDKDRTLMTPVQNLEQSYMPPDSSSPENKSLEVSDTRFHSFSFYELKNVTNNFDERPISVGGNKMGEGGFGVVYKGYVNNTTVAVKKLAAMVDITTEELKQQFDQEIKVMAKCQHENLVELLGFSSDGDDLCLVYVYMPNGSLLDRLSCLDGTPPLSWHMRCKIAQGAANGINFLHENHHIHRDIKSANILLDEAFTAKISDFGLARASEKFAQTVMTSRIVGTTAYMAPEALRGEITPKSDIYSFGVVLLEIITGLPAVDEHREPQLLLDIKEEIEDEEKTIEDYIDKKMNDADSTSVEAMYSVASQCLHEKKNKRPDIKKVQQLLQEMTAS
Method in brief: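 IRAK4 combined with fluorescent substrate and compounds, reacted 60 min at room temperature, stopped with 35 mM EDTA. Substrate and phosphorylated product separated electrophoretically on a Caliper LabChip 3000 mobility-shift reader.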

[3] = Homo sapiens, PBMC, PBMC TLR2 Induced IL-6 Assay, lipoteichoic acid stimulation
[4] = Homo sapiens, PBMC, human PBMCs, lipoteichoic acid stimulated
[5] = human PBMCs, lipoteichoic acid stimulated

SMILES: CC(C)(O)CCNC(=O)c1cnc(-n2ccc3cc(C#N)cnc32)cc1NC1CCOCC1 [Example 12, 6-(5-cyano-1H-pyrrolo[2,3-b]pyridin-1-yl)-N-(3-hydroxy-3-methylbutyl)-4-((tetrahydro-2H-pyran-4-yl)amino)nicotinamide]
EC50 [1, 3]: 0.122 µM
IC50 ([2]; IRAK4 Inhibition Assay): 0.0017 µM

SMILES: CC(C)(O)[C@H](F)CNC(=O)c1cnc(-n2ncc3cc(C#N)cnc32)cc1N[C@@H]1C[C@H]1CO (single isomer, unassigned) [Example 642]
IC50 [1, 4]: 0.197 µM
IC50 ([2]; IRAK4 0.6 nM): 0.0048 µM

SMILES: CNC(=O)[C@H](F)CNC(=O)c1cnc(-n2ccc3cc(C#N)cnc32)cc1NC1CC1 [Example 132, (R)-6-(5-Cyano-1H-pyrrolo[2,3-b]pyridin-1-yl)-4-(cyclopropylamino)-N-(2-fluoro-3-(methylamino)-3-oxopropyl)nicotinamide]
EC50 [1, 3]: 0.092 µM
IC50 ([2]; IRAK4 Inhibition Assay): 0.0047 µM

SMILES: C[C@H](F)CNc1cc(-n2ncc3cc(C#N)c(N)nc32)ncc1C(=O)NC[C@@H](F)C(C)(C)O [Example 590]
IC50 [1, 4]: 0.129 µM
IC50 ([2]; IRAK4 0.6 nM): 0.0019 µM

SMILES: CC(C)Nc1cc(-n2ncc3cc(C#N)cnc32)ncc1C(=O)NC[C@@H](F)C(O)C(C)C (single isomer, unassigned) [Example 232]
EC50 [1, 3]: 0.033 µM
IC50 [1, 3]: 0.211 µM
IC50 ([2]; IRAK4 Inhibition Assay): 0.0023 µM

SMILES: CC(C)(O)[C@H](F)CNC(=O)c1cnc(-n2ccc3cc(C#N)cnc32)cc1NC1CCC(NCC(F)(F)F)C1 (stereo partly drawn) [Example 488]
EC50 [1, 4]: 0.208 µM
IC50 [1, 5]: 0.379 µM
IC50 ([2]; IRAK4 0.6 nM): 0.0068 µM

SMILES: CC(CCF)Nc1cc(-n2ncc3cc(C#N)cnc32)ncc1C(=O)NC[C@@H](F)C(C)(C)O (mixture of isomers) [Example 205]
EC50 [1, 3]: 0.24 µM
IC50 ([2]; IRAK4 Inhibition Assay): 0.007 µM

SMILES: Cc1cnc2c(cnn2-c2cc(NC(C)C)c(C(=O)NC[C@@H](F)C(C)(C)O)cn2)c1 [Example 155, (R)—N-(2-fluoro-3-hydroxy-3-methylbutyl)-4-(isopropylamino)-6-(5-methyl-1H-pyrazolo[3,4-b]pyridin-1-yl)nicotinamide]
EC50 [1, 3]: 0.164 µM
IC50 ([2]; IRAK4 Inhibition Assay): 0.007 µM

SMILES: CC(C)(O)[C@H](F)CNC(=O)c1cnc(-n2cnc3cc(Cl)cnc32)cc1NC1COC1 [Example 340]
EC50 [1, 3]: 0.536 µM
IC50 ([2]; IRAK4 Inhibition Assay): 0.01 µM

SMILES: CC(C)Nc1cc(-n2ccc3cc(C#N)ccc32)ncc1C(=O)NC[C@@H](F)C(C)(C)O [Example 1, (R)-6-(5-Cyano-1H-indol-1-yl)-N-(2-fluoro-3-hydroxy-3-methylbutyl)-4-(isopropylamino)nicotinamide]
EC50 [1, 3]: 0.901 µM
IC50 [1, 3]: 0.873 µM
IC50 ([2]; IRAK4 Inhibition Assay): 0.0033 µM

SMILES: CC(C)(O)[C@H]1CC[C@H](Nc2cc(-n3ncc4cc(Cl)cnc43)ncc2C(=O)NC[C@@H](F)C(C)(C)O)C1 [Example 628]
IC50 [1, 4]: 0.148 µM
IC50 ([2]; IRAK4 0.6 nM): 0.0033 µM

SMILES: CC(C)(O)[C@H](F)CNC(=O)c1cnc(-n2ccc3cc(C#N)cnc32)cc1NC1CCOCC1F (single isomer, unassigned) [Example 107]
EC50 ([1]; PBMC TLR2 Induced IL-6 Assay, lipoteichoic acid stimulation): 0.057 µM
IC50 ([2]; IRAK4 Inhibition Assay): 0.0018 µM

SMILES: CC(C)CCNC(=O)c1cnc(-n2ncc3cc(C#N)c(N)nc32)cc1NC1COC1 [Example 560]
IC50 [1, 4]: 0.254 µM
IC50 ([2]; IRAK4 0.6 nM): 0.0034 µM

SMILES: CC(C)(O)[C@H](F)CNC(=O)c1cnc(-n2ncc3cc(C#N)cnc32)cc1NCc1cocn1 [Example 571]
IC50 [1, 4]: 0.101 µM
IC50 ([2]; IRAK4 0.6 nM): 0.0152 µM

SMILES: CC(C)Nc1cc(-n2ncc3cc(C#N)cnc32)ncc1C(=O)NCCCN1CCOCC1 [Example 201]
EC50 [1, 3]: 0.583 µM
IC50 ([2]; IRAK4 Inhibition Assay): 0.0163 µM

SMILES: CC(C)(F)[C@H](F)CNC(=O)c1cnc(-n2ncc3cc(C#N)cnc32)cc1Nc1cnn(CC(F)F)c1 [Example 395]
IC50 [1, 4]: 0.085 µM
IC50 ([2]; IRAK4 0.6 nM): 0.0022 µM

SMILES: CC(C)Nc1cc(-n2ncc3cc(C#N)cnc32)ncc1C(=O)NCCC1CCOCC1 [Example 310]
IC50 [1, 3]: 0.023 µM
IC50 ([2]; IRAK4 Inhibition Assay): 0.0045 µM

SMILES: Cc1cnc2c(cnn2-c2cc(NC(C)C)c(C(=O)N[C@H]3CC[C@H](C(C)(C)O)CC3)cn2)c1 [Example 214]
EC50 [1, 3]: 0.209 µM
IC50 ([2]; IRAK4 Inhibition Assay): 0.0136 µM

SMILES: C[C@@H](CF)Nc1cc(-n2ccc3cncnc32)ncc1C(=O)NC[C@@H](F)C(C)(C)O [Example 116, N—((R)-2-fluoro-3-hydroxy-3-methylbutyl)-4-(((S)-1-fluoropropan-2-yl)amino)-6-(7H-pyrrolo[2,3-d]pyrimidin-7-yl)nicotinamide]
EC50 [1, 3]: 0.133 µM
IC50 ([2]; IRAK4 Inhibition Assay): 0.0062 µM

Further lines, with some results ahead:

IC50 ([2]; IRAK4 Inhibition Assay): 0.0014 µM
SMILES: CCNc1cc(-n2ccc3cc(C#N)cnc32)ncc1C(=O)NC[C@@H](F)C(C)(C)O [Example 4, (R)-6-(5-cyano-1H-pyrrolo[2,3-b]pyridin-1-yl)-4-(ethylamino)-N-(2-fluoro-3-hydroxy-3-methylbutyl) nicotinamide]
EC50 [1, 3]: 0.015 µM
IC50 [1, 3]: 0.157 µM

IC50 ([2]; IRAK4 Inhibition Assay): 0.0016 µM
SMILES: CC(=O)Nc1ccc(CCNC(=O)c2cnc(-n3ncc4cc(C#N)cnc43)cc2NC(C)C)cc1 [Example 270]
IC50 [1, 3]: 0.348 µM

IC50 ([2]; IRAK4 Inhibition Assay): 0.0035 µM
SMILES: CC(C)CCNC(=O)c1cnc(-n2ncc3cc(C#N)c(N)nc32)cc1NC(C)C [Example 303]
IC50 [1, 3]: 0.176 µM

IC50 ([2]; IRAK4 0.6 nM): 0.0048 µM
SMILES: CC(C)(O)/C=C/Nc1cc(-n2ccc3cc(C#N)cnc32)ncc1C(=O)NC[C@@H](F)C(C)(C)O [Example 419]
EC50 [1, 4]: 0.107 µM

IC50 ([2]; IRAK4 Inhibition Assay): 0.0017 µM
SMILES: CC(C)Nc1cc(-n2ccc3cc(C#N)cnc32)ncc1C(=O)NCCC(C)(C)O [Example 11, 6-(5-cyano-1H-pyrrolo[2,3-b]pyridin-1-yl)-N-(3-hydroxy-3-methylbutyl)-4-(isopropylamino)nicotinamide]
EC50 [1, 3]: 0.05 µM

IC50 ([2]; IRAK4 0.6 nM): 0.0105 µM
SMILES: CC(C)Nc1cc(-n2ccc3cc(CNC(=O)C4CCOC4)cnc32)ncc1C(=O)NC[C@@H](F)C(C)(C)O (stereo partly drawn) [Example 520]
IC50 [1, 4]: 0.347 µM

IC50 ([2]; IRAK4 Inhibition Assay): 0.0018 µM
SMILES: C[C@H](CF)Nc1cc(-n2ccc3cc(C#N)cnc32)ncc1C(=O)NC[C@@H](F)C(C)(C)O [Example 118, 6-(5-cyano-1H-pyrrolo[2,3-b]pyridin-1-yl)-N—((R)-2-fluoro-3-hydroxy-3-methylbutyl)-4-(((R)-1-fluoropropan-2-yl)amino)nicotinamide]
EC50 [1, 3]: 0.018 µM

IC50 ([2]; IRAK4 0.6 nM): 0.0099 µM
SMILES: CC(C)NC(=O)[C@H](F)CNc1cc(-n2ccc3cc(C#N)cnc32)ncc1C(=O)NC[C@@H](F)C(C)(C)O [Example 435]
EC50 [1, 4]: 0.291 µM

IC50 ([2]; IRAK4 Inhibition Assay): 0.0043 µM
SMILES: CC(C)Nc1cc(-n2ccc3cccnc32)ncc1C(=O)NC[C@@H](F)C(C)(C)O [Example 74, (R)—N-(2-fluoro-3-hydroxy-3-methylbutyl)-4-(isopropylamino)-6-(1H-pyrrolo[2,3-b]pyridin-1-yl)nicotinamide]
IC50 [1, 3]: 0.531 µM

IC50 ([2]; IRAK4 Inhibition Assay): 0.0022 µM
SMILES: CC(C)(O)[C@H](F)CNC(=O)c1cnc(-n2ccc3cc(C#N)cnc32)cc1N[C@@H]1CCC[C@H]1O [Example 30, 6-(5-cyano-1H-pyrrolo[2,3-b]pyridin-1-yl)-N—((R)-2-fluoro-3-hydroxy-3-methylbutyl)-4-(((1R,2R)-2-hydroxycyclopentyl)amino)nicotinamide]
EC50 [1, 3]: 0.101 µM
IC50 [1, 3]: 0.184 µM

IC50 ([2]; IRAK4 Inhibition Assay): 0.0031 µM
SMILES: CC(C)Nc1cc(-n2ncc3cc(C#N)cnc32)ncc1C(=O)NCCc1ccc(S(N)(=O)=O)cc1 [Example 251]
EC50 [1, 3]: 0.311 µM

IC50 ([2]; IRAK4 Inhibition Assay): 0.0036 µM
SMILES: CNC(=O)c1cccc(Nc2cc(-n3ccc4cc(C#N)cnc43)ncc2C(=O)NC[C@@H](F)C(C)(C)O)c1 [Example 55, (R)-6-(5-cyano-1H-pyrrolo[2,3-b]pyridin-1-yl)-N-(2-fluoro-3-hydroxy-3-methylbutyl)-4-((3-(methylcarbamoyl)phenyl)amino)nicotinamide]
EC50 [1, 3]: 0.513 µM

IC50 ([2]; IRAK4 0.6 nM): 0.0012 µM
SMILES: CC(C)(O)[C@H](F)CNC(=O)c1cnc(-n2ccc3cc(C#N)cnc32)cc1N[C@H]1CC[C@H](C(N)=O)CC1 [Example 486]
IC50 [1, 4]: 0.177 µM

IC50 ([2]; IRAK4 0.6 nM): 0.0062 µM
SMILES: Cc1cc(Nc2cc(-n3ncc4cc(C#N)cnc43)ncc2C(=O)NC[C@@H](F)C(C)(C)O)[nH]n1 [Example 405]
IC50 [1, 4]: 0.561 µM

IC50 ([2]; IRAK4 0.6 nM): 0.004 µM
SMILES: CC(C)(O)[C@H](F)CNC(=O)c1cnc(-n2ccc3cc(C#N)cnc32)cc1NCCN1CCOCC1 [Example 480]
EC50 [1, 4]: 0.17 µM
IC50 [1, 4]: 0.27 µM

IC50 ([2]; IRAK4 0.6 nM): 0.0011 µM
SMILES: CC(C)(O)[C@H](F)CNC(=O)c1cnc(-n2ncc3cc(C#N)cnc32)cc1Nc1cc(C2CC2)n[nH]1 [Example 404]
IC50 [1, 4]: 0.164 µM

IC50 ([2]; IRAK4 Inhibition Assay): 0.0045 µM
SMILES: CC(C)Nc1cc(-n2ncc3cc(C#N)cnc32)ncc1C(=O)NCc1nc(Cc2ccccc2)no1 [Example 267]
IC50 [1, 3]: 0.516 µM

IC50 ([2]; IRAK4 Inhibition Assay): 0.0028 µM
SMILES: CC(C)Nc1cc(-n2ccc3cc(C#N)cnc32)ncc1C(=O)NCC(=O)NC1CCS(=O)(=O)C1 (stereo not drawn) [Example 70, 6-(5-cyano-1H-pyrrolo[2,3-b]pyridin-1-yl)-N-(2-((1,1-dioxidotetrahydrothiophen-3-yl)amino)-2-oxoethyl)-4-(isopropylamino)nicotinamide]
EC50 [1, 3]: 0.21 µM

IC50 ([2]; IRAK4 0.6 nM): 0.0034 µM
SMILES: CC(C)(O)[C@H](F)CNC(=O)c1cnc(-n2ncc3cc(F)cnc32)cc1NC1CCC(F)C1 (stereo partly drawn) [Example 620]
EC50 [1, 5]: 0.114 µM

IC50 ([2]; IRAK4 Inhibition Assay): 0.0017 µM
SMILES: CCNC(=O)[C@H]1CC[C@H](NC(=O)c2cnc(-n3ccc4cc(C#N)cnc43)cc2NC(C)C)CC1 [Example 92, 6-(5-cyano-1H-pyrrolo[2,3-b]pyridin-1-yl)-N-((trans)-4-(ethylcarbamoyl)cyclohexyl)-4-(isopropylamino)nicotinamide]
EC50 [1, 3]: 0.079 µM
